Structures can show the parent of a compound that is named as a salt.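 Test compounds were applied to cells in 96-well plates for 48 hours at 5 doses. GI50 = concentration required for 50% inhibition of growth.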 The source made the active and inactive calls. Cut-off read from the data, not from the text of the source: active = GI50 up to about 1.1 µM and inactive = higher. Some results are limits rather than exact numbers.

Test in all cases: growth of human tumour cells (NCI), 48 h
In test [1] the test system is K562.
The subject of test [2] is OVCAR-8.
Test [3] deals with T47D.
Test [4] relates to SF-268.
Test [5] has as its system UACC-62.
Test [6] deals with SNB-19.
The test system of test [7] is NCI-H522.
The test system of test [8] is DU-145.
The test system of test [9] is MCF7.
The subject of test [10] is SK-MEL-2.
Test [11] has as its system SF-295.
Test [12] relates to NCI-H23.
Test [13] has as its system HCT-15.
Test [14] concerns HL-60.
Test [15] relates to NCI-H460.
Test [16] deals with HOP-62.
Test [17] deals with Malme-3M.
Test [18] deals with RPMI-8226.

Consider `Cc1ccc2c(c1)S(=O)(=O)c1ccc3ccccc3c1N2`, for which the GI50 in test [1], in [2], in test [3], in test [4], in test [5] and in test [6] was > 100 µM (inactive) each time. Moreover, the GI50 in test [7], in [8], in test [9], in [10], in test [11] and in [12] was > 100 µM (inactive) each time. The GI50 was over 100 µM in test [13], > 100 µM (inactive) in test [14], > 100 µM (inactive) in test [15] and > 100 µM (inactive) in [16].

On to `C1=CC2=CC=CC3c4nc5ccc6ccccc6c5nc4C(=C1)C23` (centres undefined), for which the GI50 in test [17], in test [18], in [1], in test [2], in test [3] and in test [4] was > 100 µM (inactive) in each case. The GI50 in [5], in test [6], in test [8], in test [9], in [10] and in [11] was > 100 µM (inactive) each time. The GI50 in test [12] is > 100 µM (inactive); in [13] it was over 100 µM; in test [14], > 100 µM (inactive); in [15] it was > 100 µM (inactive); in [16] it was > 100 µM (inactive).

With `O=C(O)[C@@H]1CCS(=O)(=O)N1`, the GI50 in test [17], in test [2], in test [3], in [4], in [5] and in [6] was > 100 µM (inactive) throughout. Moreover, the GI50 in test [7], in [8], in test [9], in test [10], in [11] and in [12] was > 100 µM (inactive) each time. Also, the GI50 is over 100 µM in test [13], > 100 µM (inactive) in [14], > 100 µM (inactive) in test [15] and > 100 µM (inactive) in test [16].

For `O=C1COc2ccc([N+](=O)[O-])cc2C(=O)C1`, the GI50 in test [17], in [18], in test [1], in test [2], in test [3] and in [4] was > 10 µM (inactive) in each case. Moreover, the GI50 in test [5], in test [6], in [8], in test [9], in test [10] and in test [11] was > 10 µM (inactive) throughout. Also, the GI50 in test [12] was > 10 µM (inactive); in [13], over 10 µM; in test [14], > 10 µM (inactive); in [15], > 10 µM (inactive); in test [16], > 10 µM (inactive).

`CC1C[C@]2(C)C(NCCN)=Nc3ccccc3[C@@H]2N(C)c2ccccc21` (some centres undefined): the GI50 in test [17] is 3.72 µM (inactive); in test [18], 14.1 µM (inactive); in test [1], 11.9 µM (inactive); in test [2] it was 14.7 µM (inactive); in test [3] it was 15.1 µM (inactive); in test [4] it was 13.9 µM (inactive). Besides, the GI50 in [5] was 13.6 µM (inactive); in test [6], 13.4 µM (inactive); in [8], 15.1 µM (inactive); in test [9] it was 8.18 µM (inactive); in test [10], 17.2 µM (inactive); in test [11] it was 17.9 µM (inactive). Also, the GI50 in test [12] is 16.7 µM (inactive); in [13], 17.3 µM; in test [14], 16.2 µM (inactive); in test [15] it was 11.1 µM (inactive); in [16], 16.1 µM (inactive).

Take `CCOc1ccc(-n2c(=O)n3c(Nc4ccc(Cl)cc4)nc4c(c(=O)n(C)c(=O)n4C)n3c2=O)cc1`: the GI50 in test [18] was 24 µM (inactive); in test [1], 29.6 µM (inactive); in test [2], 36.8 µM (inactive); in test [3] it was 39.2 µM (inactive); in test [4], 34.8 µM (inactive); in test [5], 18.1 µM (inactive). The GI50 was > 100 µM (inactive) in test [6]; 18.1 µM (inactive) in [7]; 40.9 µM (inactive) in test [8]; 57.3 µM (inactive) in test [9]; 26.4 µM (inactive) in [10]; 31.6 µM (inactive) in test [11]. Further, the GI50 in [12] is 27.5 µM (inactive); in test [13], 20.7 µM; in [14] it was 22 µM (inactive); in test [15], 19.5 µM (inactive); in test [16], 71.1 µM (inactive).

`[O-][S+]1CC[S+]([O-])CC[S+]([O-])CC1` (centres undefined): the GI50 in test [1], in [2], in test [3], in test [4], in test [5] and in test [6] was > 100 µM (inactive) in each case. For the same molecule, the GI50 is > 100 µM (inactive) in test [7]; > 100 µM (inactive) in test [8]; > 100 µM (inactive) in [9]; > 100 µM (inactive) in test [11]; > 100 µM (inactive) in [12]; over 100 µM in test [13]. The GI50 in [14], in [15] and in test [16] was > 100 µM (inactive) each time.

Regarding `CC1(C)CO[P@@](=S)(c2ccccn2)O[C@@H]1c1ccccc1`, the GI50 is > 100 µM (inactive) in test [17]; 57 µM (inactive) in test [1]; > 100 µM (inactive) in test [2]; > 100 µM (inactive) in [3]; > 100 µM (inactive) in [4]; > 100 µM (inactive) in [5]. Moreover, the GI50 in test [6] is > 100 µM (inactive); in [7] it was 70.8 µM (inactive); in test [8] it was > 100 µM (inactive); in [9], > 100 µM (inactive); in test [11], > 100 µM (inactive); in [12], 89.3 µM (inactive). The GI50 in test [13] was 94.4 µM; in [14], > 100 µM (inactive); in test [15], > 100 µM (inactive); in test [16] it was > 100 µM (inactive).

As for `CC(=O)c1ccc(/N=N/c2ccc3nonc3c2N)cc1`, the GI50 in [17], in [18], in test [1], in test [2], in [3] and in [4] was > 100 µM (inactive) throughout. Further, the GI50 in [5] was > 100 µM (inactive); in [6], > 100 µM (inactive); in test [8] it was > 100 µM (inactive); in [9] it was > 100 µM (inactive); in [10] it was > 100 µM (inactive); in test [11] it was 83.4 µM (inactive). Besides, the GI50 in test [12] was 26.9 µM (inactive); in test [13], over 100 µM; in test [14] it was > 100 µM (inactive); in test [15] it was > 100 µM (inactive); in test [16], > 100 µM (inactive).

For `COC(=O)C1=COC(C)C2C[n+]3ccc4c([nH]c5ccccc54)c3CC12` (centres undefined), the GI50 is > 100 µM (inactive) in [18]; > 100 µM (inactive) in test [1]; > 100 µM (inactive) in [2]; 36.6 µM (inactive) in test [3]; > 100 µM (inactive) in test [4]; > 100 µM (inactive) in test [5]. The GI50 was > 100 µM (inactive) in test [6]; 54.5 µM (inactive) in test [7]; > 100 µM (inactive) in test [8]; 42.7 µM (inactive) in test [9]; > 100 µM (inactive) in [10]; > 100 µM (inactive) in test [11]. In addition, the GI50 was > 100 µM (inactive) in [12]; 75.2 µM in [13]; > 100 µM (inactive) in [14]; 36.2 µM (inactive) in test [15]; > 100 µM (inactive) in test [16].

With `Nc1ccc([As](=O)(O)O)cc1` [ARSANILIC ACID], the GI50 in [17], in [1], in [2], in test [3], in [4] and in test [5] was > 100 µM (inactive) in each case. For the same molecule, the GI50 in [6], in test [7], in test [8], in [9], in [10] and in [11] was > 100 µM (inactive) each time. The GI50 is > 100 µM (inactive) in test [12]; over 100 µM in test [13]; > 100 µM (inactive) in test [14]; > 100 µM (inactive) in test [15]; > 100 µM (inactive) in test [16].

With `NCCCCNCCCN` [SPERMIDINE TRIHYDROCHLORIDE], the GI50 in [17] is > 100 µM (inactive); in test [1], 67.8 µM (inactive); in test [2], > 100 µM (inactive); in [3] it was > 100 µM (inactive); in [4] it was > 100 µM (inactive); in test [5], > 100 µM (inactive). In addition, the GI50 was > 100 µM (inactive) in test [6]; 97.1 µM (inactive) in test [7]; > 100 µM (inactive) in test [8]; 72.8 µM (inactive) in test [9]; > 100 µM (inactive) in test [10]; > 100 µM (inactive) in test [11]. The GI50 in test [12] is > 100 µM (inactive); in test [13], over 100 µM; in test [14], > 100 µM (inactive); in test [15], > 100 µM (inactive); in test [16], > 100 µM (inactive).

The values above are taken from ChEMBL document CHEMBL1201862, “PubChem BioAssay data set” (2004).
